Literature values as cited in patent US11723862B2, “Dosage form with sustained release melatonin pellets” (SOCIÉTÉ DES PRODUITS NESTLÉ S.A., priority 2020, dated 2023).

Conditions: above pH=4.4

Question: Which aqueous solubility does the source give for `COc1ccc2[nH]cc(CCNC(C)=O)c2c1` [melatonin] here?
Answer: Its aqueous solubility is “low”.
